Source: ChEMBL document CHEMBL5291721, “A preclinical secondary pharmacology resource illuminates target-adverse drug reaction associations of marketed drugs” (Nat Commun, 2023)

Assays:
D(3) dopamine receptor = D(3) dopamine receptor (Homo sapiens, UniProt P35462)
Acetylcholinesterase = Acetylcholinesterase (Homo sapiens, UniProt P22303); assay type: functional
[1] = target: Sodium-dependent noradrenaline transporter (Homo sapiens, UniProt P23975)
D(1A) dopamine receptor = D(1A) dopamine receptor (Homo sapiens, UniProt P21728)
D(1A) dopamine receptor, sequence (P21728 whole entry): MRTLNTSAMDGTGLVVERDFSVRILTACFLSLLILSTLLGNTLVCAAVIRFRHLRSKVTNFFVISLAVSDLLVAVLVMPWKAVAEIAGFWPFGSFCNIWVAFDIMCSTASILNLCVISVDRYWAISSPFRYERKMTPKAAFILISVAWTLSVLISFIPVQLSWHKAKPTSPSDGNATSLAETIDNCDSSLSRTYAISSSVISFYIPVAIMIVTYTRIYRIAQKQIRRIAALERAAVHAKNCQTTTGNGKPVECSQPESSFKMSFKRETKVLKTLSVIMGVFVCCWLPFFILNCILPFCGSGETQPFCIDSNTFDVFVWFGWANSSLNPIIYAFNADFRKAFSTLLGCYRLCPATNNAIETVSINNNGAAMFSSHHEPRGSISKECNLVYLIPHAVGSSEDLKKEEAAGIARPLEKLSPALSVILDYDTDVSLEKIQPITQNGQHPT

[2] = target: Prostaglandin G/H synthase 1 (Homo sapiens, UniProt P23219); assay type: functional
Prostaglandin G/H synthase 1, sequence (P23219 whole entry): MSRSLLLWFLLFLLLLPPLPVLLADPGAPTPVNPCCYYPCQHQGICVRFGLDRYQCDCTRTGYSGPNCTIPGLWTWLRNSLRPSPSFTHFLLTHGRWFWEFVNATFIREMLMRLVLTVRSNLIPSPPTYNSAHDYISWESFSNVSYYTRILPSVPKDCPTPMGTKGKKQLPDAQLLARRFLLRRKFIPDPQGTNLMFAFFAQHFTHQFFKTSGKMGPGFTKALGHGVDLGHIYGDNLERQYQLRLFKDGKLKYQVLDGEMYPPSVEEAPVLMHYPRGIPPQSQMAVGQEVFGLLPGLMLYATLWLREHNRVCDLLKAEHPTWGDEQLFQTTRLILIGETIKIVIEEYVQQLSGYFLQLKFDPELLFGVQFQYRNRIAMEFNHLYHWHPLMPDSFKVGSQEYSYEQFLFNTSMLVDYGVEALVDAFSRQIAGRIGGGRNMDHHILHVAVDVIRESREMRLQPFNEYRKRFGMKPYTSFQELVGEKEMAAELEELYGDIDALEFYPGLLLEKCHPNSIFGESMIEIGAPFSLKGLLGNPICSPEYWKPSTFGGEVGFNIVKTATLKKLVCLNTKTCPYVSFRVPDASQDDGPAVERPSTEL

[3] = target: 3',5'-cyclic-AMP phosphodiesterase 4A (Homo sapiens, UniProt P27815); assay type: functional
3',5'-cyclic-AMP phosphodiesterase 4A, sequence (P27815 whole entry): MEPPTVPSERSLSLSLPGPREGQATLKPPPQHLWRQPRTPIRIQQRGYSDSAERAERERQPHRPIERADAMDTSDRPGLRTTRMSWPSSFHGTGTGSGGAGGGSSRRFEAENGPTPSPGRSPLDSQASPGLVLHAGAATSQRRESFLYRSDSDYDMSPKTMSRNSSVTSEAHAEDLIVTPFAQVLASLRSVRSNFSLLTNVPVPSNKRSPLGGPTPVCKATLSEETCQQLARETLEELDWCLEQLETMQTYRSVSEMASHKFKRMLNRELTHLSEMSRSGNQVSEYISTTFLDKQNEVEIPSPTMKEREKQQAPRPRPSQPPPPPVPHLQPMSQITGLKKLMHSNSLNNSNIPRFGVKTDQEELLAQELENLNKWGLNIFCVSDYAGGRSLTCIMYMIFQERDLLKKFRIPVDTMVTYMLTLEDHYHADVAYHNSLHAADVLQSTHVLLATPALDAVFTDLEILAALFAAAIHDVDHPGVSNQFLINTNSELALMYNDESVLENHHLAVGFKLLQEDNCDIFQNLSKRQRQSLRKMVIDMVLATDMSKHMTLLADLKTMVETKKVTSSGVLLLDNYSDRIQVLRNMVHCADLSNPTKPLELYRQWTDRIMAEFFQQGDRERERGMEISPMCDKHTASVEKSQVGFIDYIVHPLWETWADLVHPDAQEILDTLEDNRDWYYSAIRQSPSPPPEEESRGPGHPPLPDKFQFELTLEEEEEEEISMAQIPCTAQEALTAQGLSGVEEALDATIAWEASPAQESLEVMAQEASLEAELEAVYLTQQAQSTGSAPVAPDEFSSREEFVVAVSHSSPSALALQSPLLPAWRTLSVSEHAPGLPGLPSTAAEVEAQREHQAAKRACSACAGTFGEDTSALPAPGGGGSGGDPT

Prothrombin = Prothrombin (Homo sapiens, UniProt P00734); assay type: functional
[4] = target: T1, Alpha-2A adrenergic receptor (Homo sapiens, UniProt P08913)
T1 sequence (P08913 whole entry): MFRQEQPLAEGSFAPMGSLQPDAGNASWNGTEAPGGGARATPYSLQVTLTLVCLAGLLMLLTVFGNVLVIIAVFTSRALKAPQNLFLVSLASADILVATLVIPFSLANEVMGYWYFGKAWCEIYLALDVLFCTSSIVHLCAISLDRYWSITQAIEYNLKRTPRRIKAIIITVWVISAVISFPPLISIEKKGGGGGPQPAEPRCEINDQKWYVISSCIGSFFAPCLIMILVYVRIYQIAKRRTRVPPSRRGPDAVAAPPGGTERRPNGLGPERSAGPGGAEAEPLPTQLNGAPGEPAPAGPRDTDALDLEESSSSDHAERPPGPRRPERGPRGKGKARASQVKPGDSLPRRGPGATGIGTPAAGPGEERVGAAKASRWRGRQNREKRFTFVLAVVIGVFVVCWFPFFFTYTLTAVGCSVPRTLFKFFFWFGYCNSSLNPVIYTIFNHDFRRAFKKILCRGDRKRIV

[5] = target: T2, Amine oxidase [flavin-containing] A (Homo sapiens, UniProt P21397); assay type: functional
T2 sequence (P21397 whole entry): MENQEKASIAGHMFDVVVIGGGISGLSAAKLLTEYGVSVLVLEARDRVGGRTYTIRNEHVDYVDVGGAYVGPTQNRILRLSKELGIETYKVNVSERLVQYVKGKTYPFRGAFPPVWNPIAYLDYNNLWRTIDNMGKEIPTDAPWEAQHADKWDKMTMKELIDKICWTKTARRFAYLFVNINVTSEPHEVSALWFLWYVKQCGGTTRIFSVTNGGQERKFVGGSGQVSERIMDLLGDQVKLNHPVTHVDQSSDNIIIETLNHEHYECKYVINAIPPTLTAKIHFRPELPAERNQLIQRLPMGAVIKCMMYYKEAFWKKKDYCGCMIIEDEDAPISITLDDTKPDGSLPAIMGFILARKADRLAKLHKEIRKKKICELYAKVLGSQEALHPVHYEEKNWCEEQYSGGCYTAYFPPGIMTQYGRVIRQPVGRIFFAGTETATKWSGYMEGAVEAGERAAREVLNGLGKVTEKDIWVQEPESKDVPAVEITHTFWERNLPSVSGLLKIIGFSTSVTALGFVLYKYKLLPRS

[6] = target: Sodium-dependent dopamine transporter (Homo sapiens, UniProt Q01959)
Sodium-dependent dopamine transporter, sequence (Q01959 whole entry): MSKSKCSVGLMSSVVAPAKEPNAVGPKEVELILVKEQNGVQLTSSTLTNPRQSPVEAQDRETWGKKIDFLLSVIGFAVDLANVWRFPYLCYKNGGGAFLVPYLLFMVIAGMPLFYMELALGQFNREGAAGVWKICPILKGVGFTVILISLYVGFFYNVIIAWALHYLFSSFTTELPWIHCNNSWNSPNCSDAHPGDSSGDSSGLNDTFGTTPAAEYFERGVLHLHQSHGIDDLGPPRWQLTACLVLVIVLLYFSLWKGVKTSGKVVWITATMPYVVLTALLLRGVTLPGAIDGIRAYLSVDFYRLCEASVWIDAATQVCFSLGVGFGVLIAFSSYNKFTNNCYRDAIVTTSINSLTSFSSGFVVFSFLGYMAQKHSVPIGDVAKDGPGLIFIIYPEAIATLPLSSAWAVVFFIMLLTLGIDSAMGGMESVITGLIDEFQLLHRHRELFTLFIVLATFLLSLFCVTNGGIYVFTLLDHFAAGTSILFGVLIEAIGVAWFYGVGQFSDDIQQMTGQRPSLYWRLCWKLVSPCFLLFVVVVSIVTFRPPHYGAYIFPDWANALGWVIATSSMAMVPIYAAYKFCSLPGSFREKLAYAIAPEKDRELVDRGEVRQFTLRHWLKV

[7] = target: T3, 5-hydroxytryptamine receptor 1A (Homo sapiens, UniProt P08908); assay type: functional, cell-based
T3 sequence (P08908 whole entry): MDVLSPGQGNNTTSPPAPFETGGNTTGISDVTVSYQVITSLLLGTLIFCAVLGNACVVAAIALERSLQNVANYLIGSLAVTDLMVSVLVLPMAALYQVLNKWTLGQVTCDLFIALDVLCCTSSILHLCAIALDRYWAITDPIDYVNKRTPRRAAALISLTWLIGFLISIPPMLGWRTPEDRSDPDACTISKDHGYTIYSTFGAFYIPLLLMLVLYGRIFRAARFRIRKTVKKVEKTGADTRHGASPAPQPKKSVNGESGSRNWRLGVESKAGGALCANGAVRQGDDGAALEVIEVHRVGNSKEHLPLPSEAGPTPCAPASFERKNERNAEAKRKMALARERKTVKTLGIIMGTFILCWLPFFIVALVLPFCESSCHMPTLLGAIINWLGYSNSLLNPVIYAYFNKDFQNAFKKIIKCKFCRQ
Note: assay procedure not described here.

Acetylcholinesterase, sequence (P22303 whole entry): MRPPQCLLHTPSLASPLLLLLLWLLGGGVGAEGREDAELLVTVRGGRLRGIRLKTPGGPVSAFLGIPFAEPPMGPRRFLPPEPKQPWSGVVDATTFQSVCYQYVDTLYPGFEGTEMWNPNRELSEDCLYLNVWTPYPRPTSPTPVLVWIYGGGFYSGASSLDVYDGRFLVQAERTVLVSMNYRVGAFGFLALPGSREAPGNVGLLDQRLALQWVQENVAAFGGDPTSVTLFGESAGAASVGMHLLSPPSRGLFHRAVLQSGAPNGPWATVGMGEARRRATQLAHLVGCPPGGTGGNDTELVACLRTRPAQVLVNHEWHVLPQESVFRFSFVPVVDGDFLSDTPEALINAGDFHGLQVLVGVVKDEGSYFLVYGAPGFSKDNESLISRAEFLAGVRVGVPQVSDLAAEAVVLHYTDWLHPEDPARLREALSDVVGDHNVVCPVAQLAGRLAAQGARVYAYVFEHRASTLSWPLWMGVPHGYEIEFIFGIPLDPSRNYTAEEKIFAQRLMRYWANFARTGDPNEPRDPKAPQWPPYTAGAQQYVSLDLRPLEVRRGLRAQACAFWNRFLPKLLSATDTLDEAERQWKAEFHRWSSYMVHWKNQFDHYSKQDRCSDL
D(3) dopamine receptor, sequence (P35462 whole entry): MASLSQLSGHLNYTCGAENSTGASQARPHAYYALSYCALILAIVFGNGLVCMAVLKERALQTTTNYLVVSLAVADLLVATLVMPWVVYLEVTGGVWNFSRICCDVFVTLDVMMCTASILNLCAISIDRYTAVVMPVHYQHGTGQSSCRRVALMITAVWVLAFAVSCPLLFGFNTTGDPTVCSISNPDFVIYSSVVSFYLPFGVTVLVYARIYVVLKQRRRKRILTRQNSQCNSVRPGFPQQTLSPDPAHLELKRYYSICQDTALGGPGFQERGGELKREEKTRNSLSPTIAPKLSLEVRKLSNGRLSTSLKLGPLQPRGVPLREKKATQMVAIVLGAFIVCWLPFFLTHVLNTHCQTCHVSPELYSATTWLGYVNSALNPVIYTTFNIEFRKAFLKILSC
Sodium-dependent noradrenaline transporter, sequence (P23975 whole entry): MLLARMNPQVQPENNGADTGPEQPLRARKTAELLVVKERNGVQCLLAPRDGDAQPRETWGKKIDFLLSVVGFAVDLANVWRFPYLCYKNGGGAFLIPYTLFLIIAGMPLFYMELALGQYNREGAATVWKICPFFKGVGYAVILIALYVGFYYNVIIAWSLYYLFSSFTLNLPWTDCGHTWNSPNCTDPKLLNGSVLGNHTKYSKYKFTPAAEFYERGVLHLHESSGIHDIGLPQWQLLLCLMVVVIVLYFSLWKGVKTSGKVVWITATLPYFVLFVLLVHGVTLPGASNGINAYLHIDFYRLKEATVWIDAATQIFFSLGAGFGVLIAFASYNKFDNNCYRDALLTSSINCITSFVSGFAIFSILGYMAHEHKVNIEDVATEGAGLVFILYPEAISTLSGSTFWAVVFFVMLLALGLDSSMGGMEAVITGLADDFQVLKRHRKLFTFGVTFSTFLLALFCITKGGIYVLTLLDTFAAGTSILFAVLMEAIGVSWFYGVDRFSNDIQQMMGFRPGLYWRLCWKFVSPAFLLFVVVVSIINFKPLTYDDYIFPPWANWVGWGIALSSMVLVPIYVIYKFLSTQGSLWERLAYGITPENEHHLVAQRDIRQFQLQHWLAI

AC50 [7] [µM]	SMILES	AC50 (D(3) dopamine receptor) [µM]	AC50 (Acetylcholinesterase) [µM]	AC50 [1] [µM]	AC50 (D(1A) dopamine receptor) [µM]	AC50 [2] [µM]	AC50 [3] [µM]	AC50 (Prothrombin) [µM]	AC50 [4] [µM]	AC50 [5] [µM]	AC50 [6] [µM]
	CCc1nc(C(N)=O)c(Nc2ccc(N3CCC(N4CCN(C)CC4)CC3)c(OC)c2)nc1NC1CCOCC1 [GILTERITINIB]	26.7	> 30	> 30	> 30	> 30	2.44	> 30	> 30	> 30	> 30
> 10	Nc1ccc(S(=O)(=O)Nc2nccs2)cc1 [SULFATHIAZOLE]										
	[H]/N=C(\N/C(=N/[H])Nc1ccc(Cl)cc1)NC(C)C [PROGUANIL]	> 30	> 30	1.07	8.26	> 30	> 30	> 30	11.9	> 30	12.5
	CC(C)C[C@H](NC(=O)CNC(=O)c1cc(Cl)ccc1Cl)B(O)O [IXAZOMIB]	> 30	> 30	> 30	> 30	> 30	29.9	> 30	> 30	> 30	> 30
	N#Cc1ccc2c(c1)N(CCCN1CCC(O)CC1)c1ccccc1S2 [PERICIAZINE]		29.1	5.08		> 30	> 30	> 30		> 30	
	CN(C)[C@@H]1C(O)=C(C(N)=O)C(=O)[C@@]2(O)C(O)=C3C(=O)c4c(O)ccc(Cl)c4[C@@](C)(O)[C@H]3C[C@@H]12 [CHLORTETRACYCLINE]	> 30	> 30	> 30	> 30	> 30		> 30	> 30	> 30	> 30
> 10	C[C@H]1c2cccc(O)c2C(=O)C2=C(O)[C@]3(O)C(=O)C(C(N)=O)=C(O)[C@@H](N(C)C)[C@@H]3[C@@H](O)[C@@H]21 [DOXYCYCLINE]										
	CC(CCc1ccccc1)NCC(O)c1ccc(O)c(C(N)=O)c1 (stereo not drawn) [LABETALOL]	5.85	> 30	4.04	> 30	> 30	> 30	> 30		> 30	2.22
> 30	C=C[C@H]1C[N@@]2CC[C@H]1C[C@@H]2[C@@H](O)c1ccnc2ccc(OC)cc12 [QUINIDINE]										
> 30	CCN(CC)CCNC(=O)c1c(C)[nH]c(/C=C2\C(=O)Nc3ccc(F)cc32)c1C [SUNITINIB]										
	CC1=C(/C=C/C(C)=C/C=C/C(C)=C/C(=O)O)C(C)(C)CCC1 [TRETINOIN]	22.6	> 30	10.5	> 30		1.27	> 30	> 30	> 30	> 30

SMILES	AC50 [7] [µM]	AC50 (D(3) dopamine receptor) [µM]	AC50 (Acetylcholinesterase) [µM]	AC50 [1] [µM]	AC50 (D(1A) dopamine receptor) [µM]	AC50 [2] [µM]	AC50 [3] [µM]	AC50 (Prothrombin) [µM]	AC50 [4] [µM]	AC50 [5] [µM]	AC50 [6] [µM]
C[C@H](CCC(=O)O)[C@H]1CC[C@H]2[C@@H]3[C@@H](O)C[C@@H]4C[C@H](O)CC[C@]4(C)[C@H]3CC[C@]12C [URSODIOL]	> 30										
